According to patent US9765039B2, “Biaryl derivatives as bromodomain inhibitors” (Zenith Epigenetics Ltd., priority 2012, dated 2017):

What was measured:
arthritic rats = test: In vivo efficacy in rat collagen induced arthritis; design: species or system female Lewis strain of rats; settings: collagen Day 1 and 7, dosed Day 11 to Day 17
Protocol: Rat collagen-induced arthritis is an experimental model of polyarthritis that has been widely used for preclinical testing of numerous anti-arthritic agents. Following administration of collagen, this model establishes a measurable polyarticular inflammation, marked cartilage destruction in association with pannus formation and mild to moderate bone resorption and periosteal bone proliferation. In this model, collagen was administered to female Lewis strain of rats on Day 1 and 7 of study and dosed with compounds from Day 11 to Day 17. Compounds were evaluated to assess the potential to inhibit the inflammation (including paw swelling), cartilage destruction and bone resorption in arthritic rats, using a model in which the treatment is administered after the disease has been established.

Brd4 bromodomain 1 = biological target: T1, Brd4 bromodomain 1 (Homo sapiens, UniProt O60885); test: Inhibition of tetra-acetylated histone H4 binding to BET bromodomains (TR-FRET); design: key: Active: Compounds with an IC50 value less than 30 μM were deemed to be active.; Not Active: Compounds with an IC50 value less than 30 μM were deemed to be active; settings: first bromodomain of Brd4, tetra-acetylated histone H4 peptide
T1 construct: made in house; host or cells: E. coli BL21(DE3)
How it was run: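 TR-FRET with N-terminally His-tagged bromodomains (200 nM, E. coli-expressed, Ni affinity and SEC-purified) and biotinylated tetra-acetylated histone H4 peptide (25–50 nM), detected with Eu-cryptate streptavidin and XL665 anti-His antibody. Buffer 30 mM HEPES pH 7.4, 320 mM KF, 0.08% BSA, 0.2% DMSO; 2 h RT. IC50 from decrease in 665/620 nm ratio.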

hMCP-1 mRNA = test: Inhibition of hMCP-1 mRNA transcription in human peripheral blood mononuclear cells; format: cell-based; design: key: Active: Compounds with an IC50 value less than 30 μM were deemed to be active.; Not Active: Compounds with an IC50 value less than 30 μM were deemed to be active; settings: 3 h
Protocol: In this example, hMCP-1 mRNA in human peripheral blood mononuclear cells was quantitated to measure the transcriptional inhibition of hMCP-1 when treated with a compound of the present disclosure.
Human Peripheral Blood Mononuclear Cells were plated (1.0×10^5 cells per well) in a 96-well plate in 45 μL RPMI-1640 containing 10% FBS and penicillin/streptomycin. The cells were treated with the test compound (45 μL at 2× concentration), and then the cells were incubated at 37° C. for 3 h before the cells were harvested. At time of harvest, cells were transferred to V-bottom plates and centrifuged at 800 rpm for 5 minutes. Spent media was removed and cell lysis solution (70 μL) was added the cells in each well and incubated for 5-10 min at room temperature, to allow for complete cell lysis and detachment. mRNA was then prepared using the “mRNA Catcher PLUS plate” (Invitrogen), according to the protocol supplied. After the last wash, as much wash buffer as possible was aspirated without allowing the wells to dry. […]
The eluted mRNA isolated was then used in a one-step quantitative real-time PCR reaction, using components of the Ultra Sense Kit together with Applied Biosystems primer-probe mixes. Real-time PCR data was analyzed, normalizing the Ct values for hMCP-1 to an internal control, prior to determining the fold induction of each unknown sample, relative to the control.

FRET activity (IC50 < 30 μM) (Brd4 bromodomain 1): Active
MCP-1 Activity (IC50 < 30 μM) (hMCP-1 mRNA): Active
melting point: 93 to 95 °C
SMILES: COc1cc(OC)c2c(=O)[nH]c(-c3ccc(OCCNC(C)C)c(-c4ccc([S+](C)[O-])cc4)n3)nc2c1 (stereo not shown) [Example 41, 2-(5-(2-(Isopropylamino)ethoxy)-6-(4-(methylsulfinyl)phenyl)pyridin-2-yl)-5,7-dimethoxyquinazolin-4(3H)-one]
In vivo Activity (arthritic rats): Active
